US9085570B2, “Substituted benzamides and their uses” (The Board of Trustees of the Leland Stanford Junior …, priority 2010, dated 2015)

Tested on: not given
Test: not given
Details: not given

melting point [°C] | Compound
177 to 180 | Cc1oc(-c2ccc(C(=O)NCc3cccnc3)cc2)nc1CS(=O)(=O)c1ccc(C(C)(C)C)cc1 [Example 14, 4-(4-{[(4-tert-Butylphenyl)sulfonyl]methyl}-5-methyl-1,3-oxazol-2-yl)-N-(3-pyridinylmethyl)benzamide]
178 to 181 | Cc1ccc(S(=O)(=O)Cc2csc(-c3ccc(C(=O)NCc4cccnc4)cc3)n2)cc1 [Example 25, 4-(4-{[(4-Methylphenyl)sulfonyl]methyl}-1,3-thiazol-2-yl)-N-(3-pyridinylmethyl)benzamide]
234 to 237 | Cc1oc(-c2ccc(C(=O)NCc3ccccc3)cc2)nc1CS(=O)(=O)c1ccc(Br)cc1 [Example 27, N-Benzyl-4-(4-{[(4-bromophenyl)sulfonyl]methyl}-5-methyl-1,3-oxazol-2-yl)benzamide]
196 to 198 | Cc1oc(-c2ccc(C(=O)NCc3cccnc3)cc2)nc1CS(=O)(=O)c1ccccc1 [Example 12, 4-{5-Methyl-4-[(phenylsulfonyl)methyl]-1,3-oxazol-2-yl}-N-(3-pyridinylmethyl)benzamide]
154 to 155 | Cc1ccc(S(=O)(=O)Cc2nc(-c3ccc(C(=O)NCc4ccccn4)cc3)oc2C)cc1 [Example 4, 4-(5-Methyl-4-{[(4-methylphenyl)sulfonyl]methyl}-1,3-oxazol-2-yl)-N-(2-pyridinylmethyl)benzamide]
190 to 192 | Cc1ccc(S(=O)(=O)Cc2nc(-c3ccc(C(=O)NCc4nccn4C)cc3)oc2C)cc1 [Example 10, N-[(1-Methyl-1H-imidazol-2-yl)methyl]-4-(5-methyl-4-{[(4-methylphenyl)sulfonyl]methyl}-1,3-oxazol-2-yl)benzamide]
208 to 210 | Cc1oc(-c2ccc(C(=O)NCc3cccnc3)cc2)nc1CS(=O)(=O)c1ccc(N2CCOCC2)cc1 [Example 24, 4-[5-Methyl-4-({[4-(4-morpholinyl)phenyl]sulfonyl}methyl)-1,3-oxazol-2-yl]-N-(3-pyridinylmethyl)benzamide]
195 to 197 | Cc1ccc(S(=O)(=O)Cc2nc(-c3ccc(C(=O)N(C)c4cccnc4)cc3)oc2C)cc1 [Example 3, N-Methyl-4-(5-methyl-4-{[(4-methylphenyl)sulfonyl]methyl}-1,3-oxazol-2-yl)-N-(3-pyridinyl)benzamide]
204 to 206 | Cc1ccc(S(=O)(=O)Cc2nc(-c3ccc(C(=O)NCc4cnccn4)cc3)oc2C)cc1 [Example 9, 4-(5-Methyl-4-{[(4-methylphenyl)sulfonyl]methyl}-1,3-oxazol-2-yl)-N-(2-pyrazinylmethyl)benzamide]
266 to 269 | O=C(Nc1cccnc1)c1ccc(CNS(=O)(=O)c2nnc[nH]2)cc1 [II-7, N-(3-pyridinyl)-4-{[(4H-1,2,4-triazol-3-ylsulfonyl)amino]methyl}benzamide]
248 to 250 | Cc1ccc(S(=O)(=O)Cc2nc(-c3ccc(C(=O)Nc4cccnc4)cc3)oc2C)cc1 [Example 1, 4-(5-Methyl-4-{[(4-methylphenyl)sulfonyl]methyl}-1,3-oxazol-2-yl)-N-(3-pyridinyl)benzamide]
229 to 231 | Cc1ccc(S(=O)(=O)Cc2nc(-c3ccc(C(=O)Nc4ccncc4)cc3)oc2C)cc1 [Example 2, 4-(5-Methyl-4-{[(4-methylphenyl)sulfonyl]methyl}-1,3-oxazol-2-yl)-N-(4-pyridinyl)benzamide]
179 to 181 | Cc1cccc(S(=O)(=O)Cc2nc(-c3ccc(C(=O)NCc4cccnc4)cc3)oc2C)c1 [Example 17, 4-(5-Methyl-4-{[(3-methylphenyl)sulfonyl]methyl}-1,3-oxazol-2-yl)-N-(3-pyridinylmethyl)benzamide]
210 to 215 | Cc1oc(-c2ccc(C(=O)NCc3cccnc3)cc2)nc1CS(=O)(=O)c1ccc(N2CCN(C)CC2)cc1 [Example 23, 4-[5-Methyl-4-({[4-(4-methyl-1-piperazinyl)phenyl]sulfonyl}methyl)-1,3-oxazol-2-yl]-N-(3-pyridinylmethyl)benzamide]
207 to 208 | Cc1ccc(S(=O)(=O)Cc2nc(-c3ccc(C(=O)NCCc4cccnc4)cc3)oc2C)cc1 [Example 8, 4-(5-Methyl-4-{[(4-methylphenyl)sulfonyl]methyl}-1,3-oxazol-2-yl)-N-[2-(3-pyridinyl)ethyl]benzamide]
238 to 240 | Cc1ncc(S(=O)(=O)NCc2ccc(C(=O)Nc3cccnc3)cc2)n1C [II-6, 4-({[(1,2-Dimethyl-1H-imidazol-5-yl)sulfonyl]amino}methyl)-N-(3-pyridinyl)benzamide]
224 to 227 | Cc1oc(-c2ccc(C(=O)NCc3cccnc3)cc2)nc1CS(=O)(=O)c1ccc(Br)cc1 [Example 16, 4-(4-{[(4-Bromophenyl)sulfonyl]methyl}-5-methyl-1,3-oxazol-2-yl)-N-(3-pyridinylmethyl)benzamide]
104 to 108 | COc1ccc(S(=O)(=O)Cc2nc(-c3ccc(C(=O)NCc4cccnc4)cc3)oc2C)cc1OC [Example 20, 4-(4-{[(3,4-Dimethoxyphenyl)sulfonyl]methyl}-5-methyl-1,3-oxazol-2-yl)-N-(3-pyridinylmethyl)benzamide]
218 to 220 | Cc1oc(-c2ccc(C(=O)NCc3cccnc3)cc2)nc1CS(=O)(=O)c1ccc(F)cc1 [Example 22, 4-(4-{[(4-Fluorophenyl)sulfonyl]methyl}-5-methyl-1,3-oxazol-2-yl)-N-(3-pyridinylmethyl)benzamide]
143 to 145 | COc1cccc(S(=O)(=O)Cc2nc(-c3ccc(C(=O)NCc4cccnc4)cc3)oc2C)c1 [Example 19, 4-(5-Methyl-4-{[(3-methoxyphenyl)sulfonyl]methyl}-1,3-oxazol-2-yl)-N-(3-pyridinylmethyl)benzamide]
188 to 190 | Cc1cc(C)cc(S(=O)(=O)Cc2nc(-c3ccc(C(=O)NCc4cccnc4)cc3)oc2C)c1 [Example 15, 4-(4-{[(3,5-Dimethylphenyl)sulfonyl]methyl}-5-methyl-1,3-oxazol-2-yl)-N-(3-pyridinylmethyl)benzamide]
189 to 191 | COc1ccc(S(=O)(=O)Cc2nc(-c3ccc(C(=O)NCc4cccnc4)cc3)oc2C)cc1 [Example 18, 4-(4-{[(4-Methoxyphenyl)sulfonyl]methyl}-5-methyl-1,3-oxazol-2-yl)-N-(3-pyridinylmethyl)benzamide]
226 to 228 | O=C(Nc1cccnc1)c1ccc(CNS(=O)(=O)c2ccc(Cl)nc2)cc1 [II-2, 4-({[(6-Chloro-3-pyridinyl)sulfonyl]amino}methyl)-N-(3-pyridinyl)benzamide]
169 to 172 | Cc1ccc(S(=O)(=O)Cc2nc(-c3ccc(C(=O)NCc4ccncc4)cc3)oc2C)cc1 [Example 6, 4-(5-Methyl-4-{[(4-methylphenyl)sulfonyl]methyl}-1,3-oxazol-2-yl)-N-(4-pyridinylmethyl)benzamide]
240 to 242 | Cc1ccc(S(=O)(=O)Cc2nc(-c3ccc(C(=O)NCc4cncn4C)cc3)oc2C)cc1 [Example 11, N-[(1-Methyl-1H-imidazol-5-yl)methyl]-4-(5-methyl-4-{[(4-methylphenyl)sulfonyl]methyl}-1,3-oxazol-2-yl)benzamide]
220 to 222 | Cc1oc(-c2ccc(C(=O)NCc3cccnc3)cc2)nc1CS(=O)(=O)c1ccc(Cl)cc1 [Example 13, 4-(4-{[(4-Chlorophenyl)sulfonyl]methyl}-5-methyl-1,3-oxazol-2-yl)-N-(3-pyridinylmethyl)benzamide]
77 to 80 | Cc1ccc(S(=O)(=O)Cc2nc(-c3ccc(C(=O)N(C)Cc4cccnc4)cc3)oc2C)cc1 [Example 7, N-Methyl-4-(5-methyl-4-{[(4-methylphenyl)sulfonyl]methyl}-1,3-oxazol-2-yl)-N-(3-pyridinylmethyl)benzamide]

Tested on: RCC4 with VHL-reintroduced (RCC4/VHL)
Test: XTT cell viability assay in RCC4/VHL cells, selectivity ratio versus RCC4
Format: cell-based
Details: Ratio = IC50RCC4/VHL/IC50RCC4
Protocol: (§1) Cell Culture. RCC4 parental and RCC4 with VHL-reintroduced (RCC4/VHL), SN12C and SN12C-CSCG-VHL shRNA were maintained in DMEM supplemented with 10% FCS.
(§2) Cell Viability Assays. For 2,3-bis[2-methoxy-4-nitro-5-sulfophenyl]-2H-tetrazolium-5-carboxanilide (XTT) assays, five thousand cells were plated in 96-well plates. The next day, vehicle (DMSO) or drug was added by serial dilution. Four days later, media were aspirated, XTT solution (0.3 mg/ml of XTT (Sigma), […] N-methyl dibenxopyrazine methyl sulfate (Simga) in phenol red-free media) was added, and the plates were incubated at 37° C. for 1-2 hours. Metabolism of XTT was quantified by measuring the absorbance at 450 nm IC50s were calculated using linear interpolation. For clonogenic survival assays, three hundred cells were plated per 60 mm tissue culture dish. The cells were allowed to attach overnight and then treated with vehicle or drug for 14 days. Colonies were fixed and stained with crystal violet (0.1% crystal violet in 95% ethanol). All conditions were measured in triplicate and each experiment was done in duplicate or triplicate. To determine necrosis, cells were treated with drug for a given time point. Media and cells were collected, centrifugated, and resuspended in 0.4% trypan blue (Invitrogen). Live and dead cells were counted on a hematocytometer.
(§3) The designation A reflects an IC50 of <1 nM; B reflects an IC50 ranging from 1 to 20 nM; and C is an IC50 of >20 nM. The designation “a” reflects a ratio of RCC4/RCC-VHL+ranging from 1 to ≦10; “b” reflects from 10 to ≦100; “c” reflects a ratio of >100. Compounds I-29 have an IC50 value of ≦10 μM when tested in the above assay.

Compound | Ratio
O=C(Nc1cccnc1)c1ccc(CNS(=O)(=O)c2ccsc2)cc1 [II-5, N-(3-Pyridinyl)-4-{[(3-thienylsulfonyl)amino]methyl}benzamide] | a (a ratio of RCC4/RCC-VHL+ranging from 1 to ≦10)
O=C(Nc1cccnc1)c1ccc(CNS(=O)(=O)c2ccc(Oc3ccccc3)nc2)cc1 [II-3, 4-({[(6-Phenoxy-3-pyridinyl)sulfonyl]amino}methyl)-N-(3-pyridinyl)benzamide] | a (a ratio of RCC4/RCC-VHL+ranging from 1 to ≦10)
O=C(Nc1cccnc1)c1ccc(CNS(=O)(=O)c2cccs2)cc1 [II-4, N-(3-Pyridinyl)-4-{[(2-thienylsulfonyl)amino]methyl}benzamide] | a (a ratio of RCC4/RCC-VHL+ranging from 1 to ≦10)
O=C(Nc1cccnc1)c1ccc(CNS(=O)(=O)c2cccnc2)cc1 [II-1, N-(3-Pyridinyl)-4-{[(3-pyridylsulfonyl)amino]methyl}benzamide] | a (a ratio of RCC4/RCC-VHL+ranging from 1 to ≦10)

Tested on: RCC4
Test: XTT cell viability assay in RCC4 cells (VHL-deficient renal carcinoma)
Format: cell-based
Details: Homo sapiens, 96 h, four days drug exposure
Protocol: as §1, §2, §3

IC50 [µM] | Compound
> 0.02 | O=C(Nc1cccnc1)c1ccc(CNS(=O)(=O)c2nnc[nH]2)cc1 [II-7, N-(3-pyridinyl)-4-{[(4H-1,2,4-triazol-3-ylsulfonyl)amino]methyl}benzamide]
> 0.02 | Cc1ncc(S(=O)(=O)NCc2ccc(C(=O)Nc3cccnc3)cc2)n1C [II-6, 4-({[(1,2-Dimethyl-1H-imidazol-5-yl)sulfonyl]amino}methyl)-N-(3-pyridinyl)benzamide]
> 0.02 | O=C(Nc1cccnc1)c1ccc(CNS(=O)(=O)c2ccc(Cl)nc2)cc1 [II-2, 4-({[(6-Chloro-3-pyridinyl)sulfonyl]amino}methyl)-N-(3-pyridinyl)benzamide]
